Measurements: US10150737B2, “Compounds for controlling arthropods” (priority 2013, dated 2018)

Legend:
Lucilia cuprina = Lucilia cuprina test; type: in vivo; conditions: application rate 100 ppm; L1 larvae; after 2 days
Experimental: (§1) Solvent: dimethyl sulphoxide
To produce an appropriate active ingredient formulation, 10 mg of active ingredient are mixed with 0.5 ml of dimethyl sulphoxide, and the concentrate is diluted with water to the desired concentration.
About 20 L1 larvae of the Australian sheep blowfly (Lucilia cuprina) are transferred into a test vessel containing minced horsemeat and the active ingredient preparation of the desired concentration.
After 2 days, the kill in % is determined. 100% means that all the larvae have been killed; 0% means that none of the larvae have been killed.

Boophilus microplus = Boophilus microplus - injection test; type: in vivo; conditions: application rate 20 μg/animal; injection into engorged adult female ticks; after 7 days
Experimental: as §1
To produce an appropriate active ingredient formulation, 10 mg of active ingredient are mixed with 0.5 ml of solvent and the concentrate is diluted with solvent to the desired concentration.
1 μl of the active ingredient solution is injected into the abdomen of 5 engorged adult female cattle ticks (Boophilus microplus). The animals are transferred into dishes and kept in a climate-controlled room.
Efficacy is assessed after 7 days by laying of fertile eggs. Eggs which are not visibly fertile are stored in a climate-controlled cabinet until the larvae hatch after about 42 days. An efficacy of 100% means that none of the ticks has laid any fertile eggs; 0% means that all the eggs are fertile.

Phaedon cochleariae = Phaedon cochleariae - spray test; type: in vivo; conditions: larvae on Chinese cabbage leaf discs, after 7 days
Experimental: (§2) Solvent: 78.0 parts by weight of acetone and 1.5 parts by weight of dimethylformamide
(§3) Emulsifier: alkylaryl polyglycol ether
(§4) To produce an appropriate active ingredient formulation, 1 part by weight of active ingredient is dissolved using the specified parts by weight of solvent and made up with water containing an emulsifier concentration of 1000 ppm until the desired concentration is attained. To produce further test concentrations, the preparation is diluted with emulsifier-containing water.
Discs of Chinese cabbage leaves (Brassica pekinensis) are sprayed with an active ingredient formulation of the desired concentration and, after drying, populated with larvae of the mustard beetle (Phaedon cochleariae).
After 7 days, efficacy in % is determined. 100% means that all the beetle larvae have been killed; 0% means that no beetle larvae have been killed.

[1] = logP determination by HPLC on a reversed-phase column (C18); type: physicochemical; conditions: for logP^a): HPLC-MS method a); for log P: HPLC-MS
Ctenocephalides felis = Ctenocephalides felis - oral test; type: in vivo; conditions: application rate 100 ppm in citrated cattle blood; after 2 days
Experimental: as §1
For the purpose of producing an appropriate active ingredient formulation, 10 mg of active ingredient are mixed with 0.5 ml of dimethyl sulphoxide. Dilution with citrated cattle blood gives the desired concentration.
About 20 unfed adult cat fleas (Ctenocephalides felis) are placed into a chamber which is closed at the top and bottom with gauze. A metal cylinder whose bottom end is closed with parafilm is placed onto the chamber. The cylinder contains the blood/active ingredient preparation, which can be imbibed by the fleas through the parafilm membrane.
After 2 days, the kill in % is determined. 100% means that all of the fleas have been killed; 0% means that none of the fleas have been killed.

Tetranychus urticae = Tetranychus urticae - spray test, OP-resistant; type: in vivo; conditions: bean leaf discs, after 6 days
Experimental: as §2, §3, §4
Discs of bean leaves (Phaseolus vulgaris) infested by all stages of the greenhouse red spider mite (Tetranychus urticae) are sprayed with an active ingredient formulation of the desired concentration.
After 6 days, efficacy in % is determined. 100% means that all the spider mites have been killed; 0% means that none of the spider mites have been killed.

Spodoptera frugiperda = Spodoptera frugiperda - spray test; type: in vivo; conditions: caterpillars on maize leaf discs, after 7 days
Experimental: as §2, §3, §4
Leaf discs of maize (Zea mays) are sprayed with an active ingredient formulation of the desired concentration and, after drying, populated with caterpillars of the armyworm (Spodoptera frugiperda).
After 7 days, efficacy in % is determined. 100% means that all the caterpillars have been killed; 0% means that no caterpillars have been killed.

[2] = reversed-phase column (C18), Table I-T3

| SMILES | efficacy (kill) (Lucilia cuprina) | efficacy (laying of fertile eggs) (Boophilus microplus) | efficacy (Phaedon cochleariae; application rate 100 g/ha) | logP^a) [1] | logP^a) [1, 2] | efficacy (kill) (Ctenocephalides felis) | efficacy (Phaedon cochleariae; application rate 500 g/ha) | efficacy (Tetranychus urticae; application rate 500 g/ha) | efficacy (Spodoptera frugiperda; application rate 500 g/ha) | efficacy (Spodoptera frugiperda; application rate 100 g/ha) | efficacy (Tetranychus urticae; application rate 100 g/ha) | efficacy (Tetranychus urticae; application rate 20 g/ha) | logP^a) ([1]; reversed-phase column (C18)) | log P [1, 2] |
| --- | --- | --- | --- | --- | --- | --- | --- | --- | --- | --- | --- | --- | --- | --- |
| Cc1cc(C(F)(C(F)(F)F)C(F)(F)F)cc(C)c1-n1cc(-c2ccc(Cl)c(C(=O)NCC(=O)NCC(F)(F)F)c2)cn1 [I-T3-6] | 100% | 100% | 100% | 4.1 | 4.1 | – | – | – | – | – | – | – | – | – |
| Cc1cc(C(F)(C(F)(F)F)C(F)(F)F)cc(C)c1-n1cc(-c2cccc(C(=O)NC3(C#N)CC3)c2F)cn1 [I-T3-10] | 100% | 100% | – | 4.2 | 4.2 | 100% | 100% | 100% | 100% | – | – | – | – | – |
| Cc1cc(C(F)(C(F)(F)F)C(F)(F)F)cc(C)c1-n1cc(-c2cc(C(=O)NC3(C#N)CC3)c(F)cc2Cl)cn1 [I-T3-12] | 80% | 100% | – | 4.7 | 4.7 | 100% | 100% | – | 100% | – | – | – | – | – |
| Cc1cc(C(F)(C(F)(F)F)C(F)(F)F)cc(C)c1-n1cc(-c2cc(C(=O)NC3CC3)cc(C(F)(F)F)c2)cn1 [I-T3-15] | 100% | 100% | – | 4.9 | 4.9 | 90% | 100% | – | – | – | – | – | – | – |
| Cc1cc(C(F)(C(F)(F)F)C(F)(F)F)cc(C)c1-n1cc(-c2cc(C(=O)NC3(C#N)CC3)cc(C(F)(F)F)c2)cn1 [I-T3-18] | 100% | 100% | – | 4.7 | 4.7 | 100% | 100% | – | 100% | – | – | – | – | – |
| O=C(NCC(F)(F)F)c1cc(-c2cnn(-c3ccc(C(F)(C(F)(F)F)C(F)(F)F)cc3Cl)c2)ccc1Cl [I-T3-32] | 100% | 100% | – | 4.7 | 4.7 | 100% | – | – | – | – | – | – | – | – |
| O=C(NCCC(F)(F)F)c1cc(-c2cnn(-c3ccc(C(F)(C(F)(F)F)C(F)(F)F)cc3Cl)c2)ccc1Cl [I-T3-33] | 100% | 100% | – | 4.7 | 4.7 | 100% | – | – | – | – | – | – | – | – |
| O=C(NCC(F)(F)F)c1cc(-c2cnn(-c3ccc(C(F)(C(F)(F)F)C(F)(F)F)cc3OC(F)(F)F)c2)ccc1Cl [I-T3-36] | 100% | 100% | – | 5.0 | 5.0 | 80% | 100% | – | – | – | – | – | – | – |
| O=C(NC1CSC1)c1cc(-c2cnn(-c3ccc(C(F)(C(F)(F)F)C(F)(F)F)cc3OC(F)(F)F)c2)ccc1Cl [I-T3-37] | 100% | 100% | – | 4.9 | 4.9 | 90% | 100% | – | – | – | – | – | – | – |
| CCc1cc(C(F)(C(F)(F)F)C(F)(F)F)ccc1-n1cc(-c2ccc(Cl)c(C(=O)NCC(F)(F)F)c2)cn1 [I-T3-40] | 100% | 100% | 100% | 4.9 | 4.9 | 100% | – | – | – | 100% | – | – | – | – |
| CCc1cc(C(F)(C(F)(F)F)C(F)(F)F)ccc1-n1cc(-c2ccc(Cl)c(C(=O)NC3CSC3)c2)cn1 [I-T3-41] | 90% | 100% | 100% | 4.9 | 4.9 | 95% | – | – | – | 100% | 100% | – | – | – |
| CCc1cc(C(F)(C(F)(F)F)C(F)(F)F)cc(C)c1-n1cc(-c2ccc(Cl)c(C(=O)NCC(F)(F)F)c2)cn1 [I-T3-45] | 100% | 100% | – | 5.0 | 5.0 | 95% | 100% | 100% | 100% | – | – | – | – | – |
| N#CC1(NC(=O)c2cc(-c3cnn(-c4c(F)cc(C(F)(F)F)cc4F)c3)ccc2Cl)CC1 [I-T3-49] | 100% | 100% | 100% | 3.2 | 3.2 | 100% | – | – | – | – | – | 100% | – | – |
| N#CC1(NC(=O)c2cc(-c3cnn(-c4ncc(C(F)(F)F)cc4Cl)c3)ccc2Cl)CC1 [I-T3-59] | 100% | 100% | 100% | 3.1 | 3.1 | 100% | – | – | – | – | – | – | – | – |
| O=C(NC1CC1)c1cc(-c2cnn(-c3ncc(C(F)(F)F)cc3Cl)c2)ccc1Cl [I-T3-60] | 90% | 100% | – | 3.2 | 3.2 | 90% | – | – | – | – | – | – | – | – |
| CCc1cc(C(F)(C(F)(F)F)C(F)(F)F)cc(C)c1-n1cc(-c2cccc(C(=O)NC3(C#N)CC3)c2F)cn1 [I-T3-69] | 95% | 100% | – | 4.3 | 4.5 | 100% | 100% | 100% | 100% | – | – | – | – | – |
| CCc1cc(C(F)(C(F)(F)F)C(F)(F)F)cc(C)c1-n1cc(-c2cccc(C(=O)NC3CC3)c2F)cn1 [I-T3-70] | 100% | 100% | – | 4.3 | 4.7 | 95% | 100% | 90% | 100% | – | – | – | – | – |
| CCc1cc(C(F)(C(F)(F)F)C(F)(F)F)ccc1-n1cc(-c2cccc(C(=O)NC3(C#N)CC3)c2F)cn1 [I-T3-74] | 90% | 100% | – | 4.1 | 4.5 | – | 100% | – | 100% | – | 90% | – | – | – |
| CCc1cc(C(F)(C(F)(F)F)C(F)(F)F)ccc1-n1cc(-c2cccc(C(=O)NC3CC3)c2F)cn1 [I-T3-75] | 80% | 90% | – | 4.2 | 4.7 | – | 100% | 100% | 100% | – | – | – | – | – |
| CCc1cc(C(F)(C(F)(F)F)C(F)(F)F)ccc1-n1cc(-c2cncc(C(=O)NC3(C#N)CC3)c2)cn1 [I-T3-78] | 100% | 100% | – | 3.2 | 3.8 | 100% | 100% | 100% | 100% | – | – | – | – | – |
| Cc1cc(C(F)(C(F)(F)F)C(F)(F)F)cc(C)c1-n1cc(-c2cnc(C3CC3)c(C(=O)NC3CC3)c2)cn1 [I-T3-140] | 100% | 100% | 100% | – | – | 100% | – | – | – | 100% | – | – | 4.2 | 4.2 |
| Cn1ccc(NC(=O)c2cc(-c3cnn(-c4c(Cl)cc(C(F)(F)F)cc4Cl)c3)cnc2Cl)n1 [I-T3-146] | 90% | 100% | – | – | – | 100% | – | – | – | – | 100% | – | 2.8 | 2.8 |
